Results taken from patent US6472348B1, “Pyridone derivatives and herbicides” (Kumiai Chemical Industry Co., Ltd., priority 1996, dated 2002).

system: corn (Ze); assay: Test Example 7: crop plant selectivity by upland field soil treatment (corn), phytotoxicity; type: in vivo; parameters: scale not given here; conditions: dose 1.6 g ai/10a, 21st day after application
Procedure: (§1) (Test on Crop Plant Selectivity by Upland Field Soil Treatment)
(§2) In a plastic pot (surface area: 600 cm^2) filled with sand, corn (Ze), green foxtail (Se), pale smartweed (Po), slender amaranth (Am), common lambsquarters (Ch) and China jute (Ab) were sown and covered with soil. […] The plants were then cultured in a green house, and the evaluation of the herbicidal effects and phytotoxicity was conducted on the 21st day after the application in accordance with the standards as identified in Table 47.
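Throughout, for Herbicidal effects Ec: grade of growth control; 5 = at least 90%; 4 = 70 to 90%; 3 = 50 to 70%; 2 = 30 to 50%; 1 = 10 to 30%; 0 = under 10%.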

SMILES | Phytotoxicity Ze
Cc1cc(-c2ccc(C(F)(F)F)n(C)c2=O)c(F)cc1Cl [1-90] | 1

same assay, conditions: dose 6.3 g ai/10a, 21st day after application

SMILES | Phytotoxicity Ze
Cc1cc(-c2ccc(C(F)(F)F)n(C)c2=O)c(F)cc1Cl [1-90] | 2

system: bulrush (Sc); assay: Test Example 1: herbicidal effects by paddy field soil treatment; type: in vivo; conditions: 100 g of the active ingredient per 10 ares, 21st day after the application, index 0-5 of Table 47;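 note: grade of growth control; 5 = at least 90%; 4 = 70 to 90%; 3 = 50 to 70%; 2 = 30 to 50%; 1 = 10 to 30%; 0 = under 10%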
In short: (§3)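 Herbicidal effect was scored against a graded standard 21 days after treatment. Seeds were sown in puddled, leveled paddy soil flooded to 3 cm depth, and the active ingredient was applied at 100 g per 10 ares before greenhouse culture.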

SMILES | Herbicidal effects Sc
Cc1cc(-c2ccc(C(F)(F)F)n(C)c2=O)c(F)cc1Cl [1-90] | 5

system: monochoria (Mo); assay: as above; type: in vivo; conditions: 100 g of the active ingredient per 10 ares, 21st day after the application, index 0-5 of Table 47;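 note: grade of growth control; 5 = at least 90%; 4 = 70 to 90%; 3 = 50 to 70%; 2 = 30 to 50%; 1 = 10 to 30%; 0 = under 10%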
In short: as §3

SMILES | Herbicidal effects Mo
Cc1cc(-c2ccc(C(F)(F)F)n(C)c2=O)c(F)cc1Cl [1-90] | 5

system: barnyardgrass (Ec); assay: as above; type: in vivo; conditions: 100 g of the active ingredient per 10 ares, 21st day after the application, index 0-5 of Table 47
In short: as §3

SMILES | Herbicidal effects Ec
Cc1cc(-c2ccc(C(F)(F)F)n(C)c2=O)c(F)cc1Cl [1-90] | 5

system: common lambsquarters (Ch); assay: Test Example 2: herbicidal effects by upland field soil treatment; type: in vivo; conditions: 100 g of the active ingredient per 10 ares, 21st day after the application, index 0-5 of Table 47;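 note: grade of growth control; 5 = at least 90%; 4 = 70 to 90%; 3 = 50 to 70%; 2 = 30 to 50%; 1 = 10 to 30%; 0 = under 10%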
Excerpt: (§4) (Test on Herbicidal Effects by Upland Field Soil Treatment)

SMILES | Herbicidal effects Ch
Cc1cc(-c2ccc(C(F)(F)F)n(C)c2=O)c(F)cc1Cl [1-90] | 5

system: Digitaria ciliaris (Di); assay: as above; type: in vivo; conditions: 100 g of the active ingredient per 10 ares, 21st day after the application, index 0-5 of Table 47
Excerpt: as §4

SMILES | Herbicidal effects Di
Cc1cc(-c2ccc(C(F)(F)F)n(C)c2=O)c(F)cc1Cl [1-90] | 5

system: slender amaranth (Am); assay: as above; type: in vivo; conditions: 100 g of the active ingredient per 10 ares, 21st day after the application, index 0-5 of Table 47
Excerpt: as §4

SMILES | Herbicidal effects Am
Cc1cc(-c2ccc(C(F)(F)F)n(C)c2=O)c(F)cc1Cl [1-90] | 5

system: rice flatsedge (Ci); assay: as above; type: in vivo; conditions: 100 g of the active ingredient per 10 ares, 21st day after the application, index 0-5 of Table 47
Excerpt: as §4

SMILES | Herbicidal effects Ci
Cc1cc(-c2ccc(C(F)(F)F)n(C)c2=O)c(F)cc1Cl [1-90] | 5

system: pale smartweed (Po); assay: as above; type: in vivo; conditions: 100 g of the active ingredient per 10 ares, 21st day after the application, index 0-5 of Table 47
Excerpt: as §4

SMILES | Herbicidal effects Po
Cc1cc(-c2ccc(C(F)(F)F)n(C)c2=O)c(F)cc1Cl [1-90] | 5

system: barnyardgrass (Ec); assay: as above; type: in vivo; conditions: 100 g of the active ingredient per 10 ares, 21st day after the application, index 0-5 of Table 47
Excerpt: as §4

SMILES | Herbicidal effects Ec
Cc1cc(-c2ccc(C(F)(F)F)n(C)c2=O)c(F)cc1Cl [1-90] | 5

system: green foxtail (Se); assay: Test Example 7: crop plant selectivity by upland field soil treatment (corn), herbicidal effects; type: in vivo; parameters: scale not given here; conditions: dose 1.6 g ai/10a, 21st day after application
Procedure: as §1, §2

SMILES | Herbicidal effects Se
Cc1cc(-c2ccc(C(F)(F)F)n(C)c2=O)c(F)cc1Cl [1-90] | 5

same assay, conditions: dose 6.3 g ai/10a, 21st day after application

SMILES | Herbicidal effects Se
Cc1cc(-c2ccc(C(F)(F)F)n(C)c2=O)c(F)cc1Cl [1-90] | 5

system: common lambsquarters (Ch); assay: as above; type: in vivo; parameters: scale not given here; conditions: dose 1.6 g ai/10a, 21st day after application
Procedure: as §1, §2

SMILES | Herbicidal effects Ch
Cc1cc(-c2ccc(C(F)(F)F)n(C)c2=O)c(F)cc1Cl [1-90] | 5

same assay, conditions: dose 6.3 g ai/10a, 21st day after application

SMILES | Herbicidal effects Ch
Cc1cc(-c2ccc(C(F)(F)F)n(C)c2=O)c(F)cc1Cl [1-90] | 5

system: China jute (Ab); assay: as above; type: in vivo; parameters: scale not given here; conditions: dose 1.6 g ai/10a, 21st day after application
Procedure: as §1, §2

SMILES | Herbicidal effects Ab
Cc1cc(-c2ccc(C(F)(F)F)n(C)c2=O)c(F)cc1Cl [1-90] | 5

same assay, conditions: dose 6.3 g ai/10a, 21st day after application

SMILES | Herbicidal effects Ab
Cc1cc(-c2ccc(C(F)(F)F)n(C)c2=O)c(F)cc1Cl [1-90] | 5

system: slender amaranth (Am); assay: as above; type: in vivo; parameters: scale not given here; conditions: dose 1.6 g ai/10a, 21st day after application
Procedure: as §1, §2

SMILES | Herbicidal effects Am
Cc1cc(-c2ccc(C(F)(F)F)n(C)c2=O)c(F)cc1Cl [1-90] | 5

same assay, conditions: dose 6.3 g ai/10a, 21st day after application

SMILES | Herbicidal effects Am
Cc1cc(-c2ccc(C(F)(F)F)n(C)c2=O)c(F)cc1Cl [1-90] | 5

system: pale smartweed (Po); assay: as above; type: in vivo; parameters: scale not given here; conditions: dose 1.6 g ai/10a, 21st day after application
Procedure: as §1, §2

SMILES | Herbicidal effects Po
Cc1cc(-c2ccc(C(F)(F)F)n(C)c2=O)c(F)cc1Cl [1-90] | 5

same assay, conditions: dose 6.3 g ai/10a, 21st day after application

SMILES | Herbicidal effects Po
Cc1cc(-c2ccc(C(F)(F)F)n(C)c2=O)c(F)cc1Cl [1-90] | 5

system: green foxtail (Se); assay: Test Example 6: crop plant selectivity by upland field soil treatment (soybean), herbicidal effects; type: in vivo; parameters: scale not given here; conditions: dose 1.6 g ai/10a, 21st day after application
Procedure: as §1
(§5) In a plastic pot (surface area: 600 cm^2) filled with sand, soybean (Gl), Diaitaria ciliaris (Di), green foxtail (Se), Johnsongrass (So), pale smartweed (Po), slender amaranth (Am), common lambsquarters (Ch) and China jute (Ab) were sown and covered with soil. […] The plants were then cultured in a green house, and the evaluation of the herbicidal effects and phytotoxicity was conducted on the 21st day after the application in accordance with the standards as identified in Table 47. Symbol—represents “not tested”.

SMILES | Herbicidal effects Se
Cc1cc(-c2ccc(C(F)(F)F)n(C)c2=O)c(F)cc1Cl [1-90] | 5

same assay, conditions: dose 6.3 g ai/10a, 21st day after application

SMILES | Herbicidal effects Se
Cc1cc(-c2ccc(C(F)(F)F)n(C)c2=O)c(F)cc1Cl [1-90] | 5

system: common lambsquarters (Ch); assay: as above; type: in vivo; parameters: scale not given here; conditions: dose 1.6 g ai/10a, 21st day after application
Procedure: as §1, §5

SMILES | Herbicidal effects Ch
Cc1cc(-c2ccc(C(F)(F)F)n(C)c2=O)c(F)cc1Cl [1-90] | 5

same assay, conditions: dose 6.3 g ai/10a, 21st day after application

SMILES | Herbicidal effects Ch
Cc1cc(-c2ccc(C(F)(F)F)n(C)c2=O)c(F)cc1Cl [1-90] | 5
